Reference: patent publication US20050222126A1, “Antiangiogenic compounds and an assay for inhibitors of cell invasion” (priority 2001, published 2005)
Entries after “also recorded” stand apart in the source; their conditions may differ.

Assays:
axonal growth cones = assay: Neuronal migration in insect embryo model; format: in vivo; settings: 5 μM
Experimental: Synthetic dihydromotuporamine (DiH-MPC, 5 μM) affected neuronal migration in a well-characterized insect embryo model. DiH-MPC slowed stereotypical migration of axonal growth cones whose ultimate synaptic targets are in the central nervous system (CNS). […] Therefore, the motuporamines have application in situations where reduced axonal sprouting would be of benefit after CNS wounding. This is of particular interest in spinal cord lesions where wound-induced axonal sprouting and migration (i.e. plasticity) leads to the inappropriate intermingling of neuronal pathways, which is a major impediment to clinically efficacious CNS regeneration.

MDA 231 cells [1] = assay: Assay for invasion inhibitors (Matrigel, recovery of non-invading cells, MTT); format: cell-based, human; settings: for IC50: 2.5 h, read-out: IC50 invasion inhibition
Experimental: Matrigel (Collaborative Biomedical Products, Bedford, Mass.) was diluted 1:1 in ice-cold DMEM/F12 and 50 μl was pipetted into wells of ice-cold 96-well cell culture plates (Falcon) using ice-cold pipette tips, avoiding the sides of each well. The matrix was then allowed to gel and then dry overnight in a dry 37° C. incubator followed by rehydration with 100 μl of growth medium 1 h prior to cell plating. This treatment produces a matrix that is less prone to breakage. On top of the Matrigel, was added 100 μl medium warmed to 37° C., with or without 1 μl of sponge extract dissolved in DMSO, followed by 100 μl medium containing 60,000 MDA 231 cells. Addition of 1 μl of DMSO served as a negative control. 50 μM […] LY294002, a phosphatidylinositol 3-kinase inhibitor known to inhibit invasion, served as a positive control. The cells were then incubated for 2.5 h to allow invasion to take place.
Most of the cell culture, medium was removed without disturbing the cells. This may be accomplished using a hand-held pipettor, but more consistent results are achieved using the aspiration function of a Bio-Tek Elx405 96-well plate washer with the aspiration needle positioned about 2 mm above the surface of the Matrigel. […] The cells were then suspended by pipetting up and down three times using the 100 μl setting of a hand-held pipettor, and 100 μl was withdrawn and transferred to fresh plates without Matrigel containing 100 μl medium supplemented with 30% fetal calf serum to inactivate the trypsin. The cells were then incubated overnight to allow attachment of cells to the plastic surface. Live cells were measured using the MTT assay: the cell culture medium was replaced with 100 μl fresh medium and 25 μl of a 5 mg/ml solution of 3(4,5-dimethylthiazol-2-yl)-2,5-diphenyltetrazolium bromide in phosphate-buffered saline. After 2 hr at 37° C., the solution was removed and 100 μl of 20% sodium dodecyl sulfate dissolved in dimethylformamide: water (1:1) was added to lyse the cells. After overnight incubation at 37° C., absorbance was measured at 570 nm.

[2] = system: Lewis Lung and SCCVII tumours; assay: Tumour growth in vivo; settings: i.p. daily, 10-15 mg/kg/day, mice
MDA 231 cells [3] = assay: Cytotoxicity: cell proliferation after 24 h incubation with compound; format: cell-based, human; settings: for effects on cell proliferation: 24 h, proliferation followed up to 5 additional days
Experimental: The cytotoxic effects of Motuporamine C were examined by incubating cells in the presence of different concentrations of the compound for 24 h. Motuporamine C was washed away and cell proliferation was measured for up to 5 additional days. […] Likewise, the compounds shown in FIGS. 1, 2, 4, 5, 6, and 8-13 have low cytotoxicity.

MDA 231 cells [4] = assay: Cell spreading and actin cytoskeleton on tissue culture plastic; format: cell-based, human
Experimental: The cells were plated on rigid tissue culture plastic in the presence of serum, which contains spreading factors (Ham). Under these conditions, most MDA 231 cells spread on the plastic within 4 h in the absence of Motuporamine C. […] These ruffles, which appear black in phase contrast microscopy represent sites of dynamic actin-mediated membrane movement in both spreading and migrating cells. […] These rounded cells remained attached to the tissue culture plastic by small lamellae that had small, discontinuous ruffles.
MDA 231 cells were also pre-spread for 20 hours on tissue culture plastic and then treated with Motuporamine C (5 μM) for 4 hours.

HUVEC [5] = assay: HUVEC migration, modified Boyden chamber assay; format: cell-based, human; settings: 2.5 μM and 5 μM, VEGF 15 ng/ml
Experimental: (§1) Motuporamine C had no effect on survival of confluent HUVEC at concentrations up to 10 μM and for up to 72 hours. […] Rather, Motuporamine C inhibited HUVEC migration as assessed using a modified Boyden chamber assay.

HUVEC [6] = assay: Endothelial sprouting assay; format: cell-based, human; settings: VEGF 15 ng/ml
Experimental: Endothelial sprouting was assessed by a modification of Nehls, V. and Drenckham, D. (1995) Microvasc. Res, 50:311-322). Microcarrier beads coated with denatured collagen (Cytodex 3, Sigma) were seeded with HUVEC. When the cells reached confluence an the beads, equal numbers of HUVEC-coated beads were embedded in fibrin gels in 96-well plates. For preparation of fibrin gels, bovine fibrinogen was dissolved in MCDB medium at a concentration of 2.5 mg/ml. Aprotinin was added at a concentration of 0.05 mg/ml and the solution was filtered through a 0.22 μm filter. The fibrinogen solution was supplemented with 15 ng/ml vascular endothelial growth factor (VEGF) with or without Motuporamine C. As a control, fibrinogen solution without VEGF or Motuporamine C was used. […] After 3 days of incubation with daily changes of the medium, the number of capillary-like tubes formed per microcarrier bead (sprouts/bead) was counted by microscopy. Only sprouts greater than 150 μm in length and composed of at least 3 endothelial cells were counted.
In the endothelial sprouting assay, human umbilical vein endothelial cells (HUVEC) are seeded onto collagen-coated beads. Exposure to vascular endothelial growth factor stimulates the formation of capillary-like tubes called sprouts, whose number and length may be measured over time by microscopy.

HUVEC [7] = assay: HUVEC survival and proliferation; format: cell-based, human
Experimental: as §1

MDA 231 cells [8] = assay: Cell migration: closure of gap in confluent monolayer; format: cell-based, human; settings: 5 μM, 24 hours
Experimental: The effects of Motuporamine C on cell spreading and actin ruffling indicates invasion inhibition by decreasing cell migration. A sterile toothpick was drawn across a confluent monolayer of MDA 231 cells, leaving a cell-free gap of about 100 μm. Closure of the gap by cell migration was monitored by microscopy. In the absence of Motuporamine C, cells migrated into the gap and essentially closed it within 24 hours. These cells had broad lamellar ruffles along their leading edges throughout which were condensations of actin. […] These cells had only small and discontinuous ruffles along their leading edges and contained only small discrete patches of actin, looking similar to the “button-like” condensations observed in pre-spread cells.

[9] = system: primary Lewis lung tumour; assay: Development of tumour metastases in vivo; settings: i.p. 15 mg/kg/day, C57 mice, primary tumour irradiated
Experimental: Primary tumours were grown to a specific size and then irradiated permitting the animals to survive long enough for lung metastases to be quantified.

[10] = system: chick chorioallantoic membrane; assay: Chick chorioallantoic membrane assay (CAM) for angiogenesis; format: in vivo, chicken; settings: VEGF 30 ng/ml
Experimental: Fertilized white Leghorn chicken eggs were incubated at 37° C. under conditions of constant humidity. On embryonic day 6, the developing chorioallantoic membrane (CAM) was separated form the shell by opening a small circular window at the broad end of the egg above the air sac. After removal of the inner membrane, the opening was sealed with Parafilm and the eggs were incubated for 2 more days. Motuporamine C was prepared in PBS supplemented with 30 ng/ml VEGF. On day 8, 20 μl was loaded onto 2 mm^3 gelatin sponges (Gelfoam, Pharmacia Upjohn) that were placed on the surface of the developing CAM. Sponges containing vehicle alone (20 μl PBS) were used as negative controls whereas sponges containing 20 μl of 30 ng/ml VEGF in PBS were used as positive controls, Eggs were resealed and returned to the incubator. On day 10, images of CAM were captured digitally using an Olympus SZX9 stereomicroscope equipped with a Sport RT digital imaging system (Diagnostics Instruments).

## NCCCNCCCN1CCCCCCCCCCCCCC1 [DiH-MPC, Dihydromotuporamine C]
Axonal growth cones
  migration of axonal growth cones: slowed
  steering or pathfinding of growth cones: no steering or pathfinding deficits

## NCCCNCCCN1CCCCCCCCCCCC1 [Motuporamine A]
MDA 231 cells [1]; MDA 231 cells on Matrigel
  IC50: 3000 nM

## NCCCNCCCN1CCCC/C=C\CCCCCCCC1 [Motuporamine C]
[2]
  reduction in tumour growth rate compared to controls: 25-50%
  tumour growth compared to vehicle controls: significant decrease
MDA 231 cells [3]; 1.6 μM
  effects on cell proliferation: no detectable effects
MDA 231 cells [3]; 4 and 8 μM
  effects on cell proliferation: mild inhibition
MDA 231 cells [3]; proliferating MDA 231 cells, low micromolar concentrations
  cytotoxicity (in words): little or no toxicity
MDA 231 cells [4]; plated on plastic with serum, 4 h, increasing doses up to 5 μM
  cell spreading: decreased cell spreading
MDA 231 cells [4]; pre-spread 20 hours, 5 μM for 4 hours
  rounding of pre-spread cells: did not round-up
MDA 231 cells [4]; pre-spread cells, 5 μM for 4 hours
  actin cytoskeleton (rhodamine-phalloidin staining): subtle changes
MDA 231 cells [4]; treatment up to 48 hours
  rounding of pre-spread cells: did not cause significant cell rounding
HUVEC [5]
  migration of HUVEC towards VEGF: inhibited the migration
HUVEC [6]; 2.5 μM
  sprout formation in response to VEGF: clear inhibition
HUVEC [6]; 5 μM
  sprout formation in response to VEGF: complete inhibition
HUVEC [7]
  proliferation rate of HUVEC: does not decrease
HUVEC [7]; up to 10 μM, up to 72 hours
  survival of confluent HUVEC: no effect
MDA 231 cells [8]
  cell migration (gap closure): slows cell migration
[9]
  incidence of lung metastases: decreased incidence
[10]
  angiogenesis in CAM assay: inhibits angiogenesis
MDA 231 cells [1]; 5 μM
  detachment of cells from the matrix: did not cause the cells to detach
MDA 231 cells [1]; MDA 231 cells on Matrigel
  activity in the invasion inhibition assay (in words): strong activity; also recorded: slightly more active
  concentration that completely inhibited invasion: 5 µM
  IC50: 1000 nM

## NCCCNCCCn1c2ccccc2c2ccccc21 [carbazole analog]
MDA 231 cells [1]; MDA 231 cells on Matrigel
  activity in the invasion inhibition assay (in words): potent activity
  IC50: 3000 nM

## C=C1[C@@H](C)[C@H]2[C@H](Cc3ccccc3)NC(=O)[C@]23[C@H](OC(C)=O)/C=C/[C@@](C)(O)C(=O)[C@@H](C)C/C=C/[C@H]3[C@@H]1O [cytochalasin D, reference compound]
MDA 231 cells [4]; 1 μg/ml
  actin cytoskeleton: complete disassembly of the actin filaments
  rounding of pre-spread cells: round up completely
